Legend:
[1] = molecular target: T1, rabbit reticulocyte 15-LO (Oryctolagus cuniculus, UniProt P12530); assay: HPLC Assay of 15-LO Inhibition; format: biochemical; settings: HPLC method; linoleic acid substrate, 4° C., 10 minutes
T1 construct: rabbit reticulocyte 15-LO; from tissue; host or cells: rabbit reticulocytes
T1 sequence (P12530 1-663): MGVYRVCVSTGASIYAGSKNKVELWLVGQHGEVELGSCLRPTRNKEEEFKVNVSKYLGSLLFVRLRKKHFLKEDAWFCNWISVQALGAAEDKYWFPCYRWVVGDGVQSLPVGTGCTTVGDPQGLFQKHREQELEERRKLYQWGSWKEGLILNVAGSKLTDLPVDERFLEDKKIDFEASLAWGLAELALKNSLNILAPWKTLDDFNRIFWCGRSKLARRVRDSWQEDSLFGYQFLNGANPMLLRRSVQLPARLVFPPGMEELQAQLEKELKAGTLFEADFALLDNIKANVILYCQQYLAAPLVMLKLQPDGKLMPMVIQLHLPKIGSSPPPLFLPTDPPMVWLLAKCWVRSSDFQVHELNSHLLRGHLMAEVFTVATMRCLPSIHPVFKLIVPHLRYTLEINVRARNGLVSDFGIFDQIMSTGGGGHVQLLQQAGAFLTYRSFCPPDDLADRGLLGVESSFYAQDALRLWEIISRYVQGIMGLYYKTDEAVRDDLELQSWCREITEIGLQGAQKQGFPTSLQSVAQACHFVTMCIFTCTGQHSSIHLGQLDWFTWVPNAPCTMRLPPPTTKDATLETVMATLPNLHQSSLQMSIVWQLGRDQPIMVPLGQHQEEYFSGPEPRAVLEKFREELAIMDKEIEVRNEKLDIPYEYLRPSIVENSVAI
Protocol: (§1) The isothiazolones of Formula I are also effective for treating inflammation and atherosclerosis. A characteristic feature of atherosclerosis is the accumulation of cholesteryl ester engorged from foam cells. Foam cells are derived from circulating monocytes which invade artery walls in response to hypercholesterolemia, and mature into tissue macrophages. […] Specifically, representative compounds were evaluated by the methods described by Auerbach, et al., Analytical Biochemistry, 1992;201:375-380. Two in vitro assays were utilized, both utilizing rabbit reticulocyte 15-LO, and linoleic acid as substrate, to enzymatically produce a peroxide oxidation product known as 13(S)-HPODE. N-Benzoyl leucomethylene blue was utilized as a colorimetric reagent for detection and quantification of the peroxide formation. Also, HPLC was utilized to quantify the oxidation following incubation at 4° C. for 10 minutes.
(§2) Table 3 gives the concentration of compound required to inhibit 50% of the activity of 15-LO (IC50) when measured by the HPLC method of Auerbach, et al. Table 4 gives the percent inhibition of 15-LO activity when evaluated by the colorimetric method.

[2] = molecular target: T1, rabbit reticulocyte 15-LO; assay: Colorimetric Assay of 15-LO Inhibition; format: biochemical; settings: colorimetric method
Protocol: as §1, §2

[3] = molecular target: T2, HIV-1 Nucleocapsid Protein (NCp7) (Human immunodeficiency virus type 1 group M subtype B, UniProt P12493); assay: Fluorescence-based (TSQ) assay of zinc ejection from purified HIV-1 NCp7; format: biochemical; settings: 10 μM compound, 2.8 μM NCp7, 47 μM TSQ, pH 7.4, 26° C., 90 minutes
T2 construct: The NCp7 protein containing 2 Zn-fingers and 2 Zn ions
Description: The compounds of the present invention cause the extrusion of zinc from the nucleocapsid protein (NCp7) of HIV-1. The NC protein is highly conserved among all retroviruses (South T., Blake P., et al., Biochemistry, 1990;;29:7786) and is essential for viral infectivity (Aldovini A. and Young R., J. Virology, 1990;64:1920 and Gorelick R., Nigida S., et al., J. Virology, 1990;64:3207). The zinc is normally held in NC proteins by 1 or 2 zinc fingers. In the case of HIV-1, 2 zinc fingers are present (Summers M., South T., et al., Biochemistry, 1990;29:329) and are involved specifically with the PSI site on viral RNA which controls the packaging of viral RNA. Interference of this packaging causes the formation of non-infectious virions (Dannull J., Surovoy A., et al., EMBO, 1994;13:1525). It has previously been shown that compounds that cause zinc extrusion have potent anti-HIV activity in multiple cell lines and against all retroviruses (Rice W., Schaeffer C., et al., Nature, 1993;361:473).
A fluorescence-based assay has been developed to monitor the ejection of zinc from purified HIV-1 NCp7. The fluorophore, N-(6-methoxy-8-quinolyl)-p-toluenesulfonamide (TSQ), has an increased fluorescent signal upon bonding zinc ion in solution. The NCp7 protein containing 2 Zn-fingers and 2 Zn ions is incubated with drug causing the extrusion of Zn ions. The released Zn is then sequestered by the TSQ and the increased fluorescence monitored relative to control. The assay was performed as follows: 10 μM compound was added to 2.8 μM NCp7 and 47 μM TSQ in 20 μL of pH 7.4 buffer at 26° C. for 90 minutes. Fluorescence (excitation 355 nm emission 400 nm) was monitored versus time. Controls were the NCp7 under assay conditions without drug, and apo NCp7 (no Zn) with drug. The % Zn extrusion was calculated based on the actual fluorescence measured divided by the fluorescence of all theoretical Zn extruded (5.6 μM)×100.
Table 1 below presents the results of testing several of the invention compounds in zinc extrusion assay described above. The compounds were evaluated for their ability to cause the extrusion of zinc from nucleocapsid protein NCp7 (expressed as % relative to control).

HIV = assay: CEM cell assay, anti-HIV activity (XTT, protection from viral cytopathic effects); format: cell-based; settings: Human immunodeficiency virus 1, CCRF-CEM; Effective concentration which protects cells from viral cytopathic effects
Description: The test systems utilized to establish the cellular antiviral activity of the isothiazolones of Formula I are well recognized in the art and are routinely employed for such purpose. For example, the assay utilized to evaluate the compounds activity against the HIV virus is that employed by the U.S. National Cancer Institute as described by Weislow O. S., et al., J. Natl. Cancer Inst., 1989;81:577-586, incorporated herein by reference.
The procedure is designed to detect agents acting at any stage of the virus reproductive cycle. The assay basically involves the killing of T4 lymphocytes by HIV. Small amounts of HIV are added to cells, and at least two complete cycles of virus reproduction are necessary to obtain the required cell killing. Agents which interact with virions, cells, or virus gene-products to interfere with viral activities will protect cells from cytolysis. The system is automated in several features to accommodate large numbers of candidate agents, and is generally designed to detect anti-HIV activity. However, compounds which degenerate or are rapidly metabolized in the culture conditions may not show activity in this screen.
Yet another test system employed to determine antiviral activity is called the CEM cell assay.
T4 lymphocytes (CEM cell line) are exposed to HIV at a virus to cell ratio approximately 0.05, and plated along with noninfected control cells in 96-well microliter plates.
Candidate agent is dissolved in dimethyl sulfoxide (unless otherwise noted), then diluted 1:200 in cell culture medium. Further dilutions (half-log10) are prepared before adding to an equal volume of medium containing either infected or noninfected cells.
Cultures are incubated at 37° in a 5% carbon dioxide atmosphere for 6 or 7 days. The tetrazolium salt, XTT, is added to all wells, and cultures are incubated to allow formazan color development by viable cells J. National Cancer Institute, 1989;81:577-586. Individual wells are analyzed spectrophotometrically to quantitate formazan production, and in addition are viewed microscopically for detection of viable cells confirmation of protective activity.
Drug-tested virus-infected cells are compared with drug-treated noninfected cells and with other appropriate controls (untreated infected and untreated noninfected cells, drug-contain wells without cells, etc.) on the same plate. Data are reviewed in comparison with other tests done at the same time and a determination about activity is made.

[4] = CEM cell assay, toxicity (growth inhibition); format: cell-based; settings: human, cem cells; Toxic concentration which inhibits the growth of cells 50% relative to control; read-out: CEM Cell Assay TC50
Protocol: T4 lymphocytes (CEM cell line) are exposed to HIV at a virus to cell ratio approximately 0.05, and plated along with noninfected control cells in 96-well microliter plates. Candidate agent is dissolved in dimethyl sulfoxide (unless otherwise noted), then diluted 1:200 in cell culture medium. Further dilutions (half-log10) are prepared before adding to an equal volume of medium containing either infected or noninfected cells. Cultures are incubated at 37° in a 5% carbon dioxide atmosphere for 6 or 7 days. The tetrazolium salt, XTT, is added to all wells, and cultures are incubated to allow formazan color development by viable cells J. National Cancer Institute, 1989;81:577-586. Individual wells are analyzed spectrophotometrically to quantitate formazan production, and in addition are viewed microscopically for detection of viable cells confirmation of protective activity. Drug-tested virus-infected cells are compared with drug-treated noninfected cells and with other appropriate controls (untreated infected and untreated noninfected cells, drug-contain wells without cells, etc.) on the same plate. Data are reviewed in comparison with other tests done at the same time and a determination about activity is made.

IC50 [1] [nM] | SMILES | % Zn Extrusion Relative to Control [3] [%] | further results
1300 | O=c1c2cnc(N3CCCCC3)nc2sn1CCc1ccccn1 [Example 31, 6-Piperidin-1-yl-2-(2-pyridin-2-yl-ethyl)-isothiazolo [5,4-d]pyrimidin-3-one] | – | –
290 | O=c1c2cnc(-c3ccccc3)nc2sn1CCc1ccccn1 [Example 30, 6-phenyl-2-(2-pyridin-2-yl-ethyl)-isothiazolo[5,4-d] pyrimidin-3-one] | – | –
760 | O=c1c2cnc(-c3ccccc3)nc2sn1CCc1ccccc1 [Example 28, 2-Phenethyl-6-phenyl-isothiazolo[5,4-d]pyrimidin-3-one] | – | –
120 | O=c1c2cnc(N3CCOCC3)nc2sn1CCN1CCCCC1 [Example 33, 6-Morpholin-4-yl-2-(2-piperidin-1-yl-ethyl)-isothiazolo [5,4-d]pyrimidin-3-one] | – | –
– | CCN(CC)CCn1sc2nc(-c3ccccc3)ncc2c1=O [Example 21, 2-[2-(Diethylamino)ethyl]-6-phenyl-isothiazolo[5,4-d] pyrimidin-3(2H)-one] | – | inhibition at 10 µM [2]: 95%
270 | O=c1c2cnc(-c3ccccc3)nc2sn1CCN1CCOCC1 [Example 27, 2-(2-Morpholin-4-yl-ethyl)-6-phenyl-isothiazolo[5,4-d) pyrimidin-3-one] | – | –
– | CC(C)C(C(=O)O)n1sc2ccccc2c1=O (centres unmarked) [Example 14, 3-Methyl-2-(3-oxo-3h-benzo[d]isothiazol-2-yl)-butanoic acid] | 71 | EC50 (HIV): 21 µM; CC50 [4]: > 100 µM
300 | O=c1c2cnc(-c3ccccc3)nc2sn1Cc1ccccc1 [Example 24, 2-Benzyl-6-phenyl-isothiazolo[5,4-d]pyrimidin-3-one] | – | –
390 | O=c1c2cnc(-c3ccccc3)nc2sn1Cc1ccccn1 [Example 29, 6-phenyl-2-pyridin-2-ylmethyl-isothiazolo[5,4-d] pyrimidin-3-one] | – | –
3200 | O=c1[nH]sc2nc(N3CCCCC3)ncc12 [Example 32, 6-Piperidin-1-yl-isothiazolo[5,4-d]pyrimidin-3-one] | – | –
– | NS(=O)(=O)c1ccc(NC(=O)c2ccccc2S)cc1 [Preparation 29, 2-Mercapto-N-(4-sulfamoylphenyl)benzamide] | 5.8 | –
– | CC(=O)NS(=O)(=O)c1ccc(-n2sc3ccccc3c2=O)cc1 [Example 3, N-Acetyl-4-(3-oxo-3h-benzo[d]isothiazol-2-yl)-benzenesulfonamide] | – | inhibition at 10 µM [2]: 75%
– | O=C(O)Cn1sc2ccccc2c1=O [Example 13, 2-(3-Oxo-3h-benzo[d]isothiazol-2-yl) acetic acid] | 75 | –
– | O=c1c2ccccc2sn1-c1ccccc1 [Example 15, 2-Phenyl-3-oxo-3h-benz[d]isothiazole] | 97 | –
400 | CN(C)c1ncc2c(=O)n(Cc3ccccn3)sc2n1 [Example 23, 6-(Dimethylamino)-2-(2-pyridinylmethyl)isothiazolo [5,4-d]pyrimidin-3-(2H)-one] | – | –
1700 | CN(C)c1ncc2c(=O)n(CCc3ccccn3)sc2n1 [Example 34, 6-Dimethylamino-2-(2-pyridin-2-yl-ethyl)-isothiazolo [5,4-d]pyrimidin-3-one] | – | –
– | CC[C@H](C)[C@@H](C(=O)O)n1sc2ccccc2c1=O [Example 2, [S-(R*,R*)]-3-Methyl-2-(3-oxo-3h-benzo[d]isothiazol-2-yl)pentanoic acid] | 30 | EC50 (HIV): 14 µM; CC50 [4]: > 100 µM
– | Cc1ccnc(-n2sc3ccccc3c2=O)c1 [Example 18, 2-(4-Methylpyridin-2-yl)-3-oxo-3h-benzo[d]isothiazole] | 100 | –
– | O=C(O)CCCn1sc2ccccc2c1=O [Example 17, 4-(3-Oxo-2-h-benzo[d]isothiaz-2-yl) butanoic acid] | 78 | EC50 (HIV): 5.8 µM; CC50 [4]: > 100 µM
– | O=C(O)Cc1ccc(-n2sc3ccccc3c2=O)cc1 [Example 25, 4-(3-Oxo-3h-benz-[d]isothiazol-2-yl)-phenyl acetic acid] | 89 | EC50 (HIV): 5.8 µM; CC50 [4]: 69 µM
160 | CN(C)c1ncc2c(=O)n(CCN3CCCCC3)sc2n1 [Example 35, 6-Dimethylamino-2-(2-piperidin-1-yl-ethyl)-isothiazolo [5,4-d]pyrimidin-3-one] | – | –

Reference: patent US5620997A, “Isothiazolones” (Warner-Lambert Company, priority 1995, dated 1997)
